From ChEMBL document CHEMBL4837249, “Discovery of Potent Antiallergic Agents Based on an o-Aminopyridinyl Alkynyl Scaffold” (J Med Chem, 2021)
pIC50: −log10 of the molar value.

Assays:
[1] = tested on: RBL-2H3; assay: Antiallergic activity against anti-DNP-IgE sensitized rat RBL-2H3 cells assessed as […] of degranulation by measuring beta-hexosaminidase release using P-nitrophenyl-N-acetyl-D-glucosamide as substrate measured after 1 hr by microplate reader; type: functional, cell-based; conditions: RBL-2H3, 1 h
[2] = tested on: RBL-2H3; assay: Antiallergic activity against anti-DNP-IgE sensitized rat RBL-2H3 cells assessed as […] of degranulation by measuring beta-hexosaminidase release using P-nitrophenyl-N-acetyl-D-glucosamide as substrate at 0.04 uM measured after 1 hr by microplate reader relative to control; type: functional
[3] = tested on: RBL-2H3; assay: Antiallergic activity against anti-DNP-IgE sensitized rat RBL-2H3 cells assessed as […] of degranulation by measuring beta-hexosaminidase release using P-nitrophenyl-N-acetyl-D-glucosamide as substrate at 1 uM measured after 1 hr by microplate reader relative to control; type: functional
[4] = tested on: RBL-2H3; assay: Antiallergic activity against anti-DNP-IgE sensitized rat RBL-2H3 cells assessed as […] of degranulation by measuring beta-hexosaminidase release using P-nitrophenyl-N-acetyl-D-glucosamide as substrate at 0.2 uM measured after 1 hr by microplate reader relative to control; type: functional
[5] = Therapeutic index, ratio of CC50 for rat RBL2H3 cells to IC50 for Antiallergic activity against anti-DNP-IgE sensitized rat RBL-2H3 cells; type: toxicity; conditions: read-out: TI
[6] = target: Macrophage colony-stimulating factor 1 receptor (Homo sapiens, UniProt P07333); assay: Inhibition of human recombinant CSF1R using ATP/Ulight-TK peptide incubated for 15 mins
Sequence of Macrophage colony-stimulating factor 1 receptor (P07333 whole entry): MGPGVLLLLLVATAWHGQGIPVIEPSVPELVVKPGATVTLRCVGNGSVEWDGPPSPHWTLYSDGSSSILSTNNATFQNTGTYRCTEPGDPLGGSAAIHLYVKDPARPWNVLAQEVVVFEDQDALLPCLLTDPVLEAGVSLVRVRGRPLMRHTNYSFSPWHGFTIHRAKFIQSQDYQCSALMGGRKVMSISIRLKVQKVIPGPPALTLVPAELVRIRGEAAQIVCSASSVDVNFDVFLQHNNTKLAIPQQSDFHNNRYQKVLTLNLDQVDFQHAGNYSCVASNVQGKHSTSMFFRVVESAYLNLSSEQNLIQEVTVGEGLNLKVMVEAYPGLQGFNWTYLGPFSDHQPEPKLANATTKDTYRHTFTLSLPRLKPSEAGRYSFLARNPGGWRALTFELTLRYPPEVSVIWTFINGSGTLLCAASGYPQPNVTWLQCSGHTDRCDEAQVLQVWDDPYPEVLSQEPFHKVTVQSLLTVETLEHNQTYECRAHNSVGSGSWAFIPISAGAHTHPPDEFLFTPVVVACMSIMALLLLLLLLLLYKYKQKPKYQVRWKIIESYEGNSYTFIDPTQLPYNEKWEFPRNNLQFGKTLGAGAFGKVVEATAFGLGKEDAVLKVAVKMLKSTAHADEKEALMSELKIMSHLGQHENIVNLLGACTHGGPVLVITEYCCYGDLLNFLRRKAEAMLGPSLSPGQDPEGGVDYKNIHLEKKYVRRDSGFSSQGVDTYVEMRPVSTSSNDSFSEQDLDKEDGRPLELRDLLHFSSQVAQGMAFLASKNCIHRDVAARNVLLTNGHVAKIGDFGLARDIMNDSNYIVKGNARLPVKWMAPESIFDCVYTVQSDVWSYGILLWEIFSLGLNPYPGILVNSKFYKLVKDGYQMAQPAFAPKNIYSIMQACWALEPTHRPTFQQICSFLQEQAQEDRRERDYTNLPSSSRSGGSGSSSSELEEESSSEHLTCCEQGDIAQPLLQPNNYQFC

SMILES	pIC50 [1]	inhibition at 0.04 µM [2]	inhibition at 1 µM [3]	inhibition at 0.2 µM [4]	selectivity ratio [5]	pIC50 [6]
Cc1ccc(C(=O)Nc2ccc(CN3CCN(C)CC3)c(C(F)(F)F)c2)cc1C#Cc1cnc2cccnn12 [PONATINIB]	6.83	–	–	–	–	–
Cc1ccc(C(=O)NC2CCCCC2)cc1C#Cc1cc(-c2cnn(C)c2)cnc1N	–	0.18%	63.7%	–	–	–
COc1cc(NC(=O)c2ccc(C)c(C#Cc3cccnc3N)c2)cc(OC)c1	–	4.26%	55.9%	3.01%	–	–
COc1cc(NC(=O)c2cccc(C#Cc3cc(-c4cnn(C)c4)cnc3N)c2)cc(OC)c1	–	1.08%	41%	272%	–	–
Cc1ccc(C(=O)Nc2ccc(Cl)cc2)cc1C#Cc1cc(-c2cnn(C)c2)cnc1N	7.62	52%	89.5%	68.6%	11.3	–
COc1cc(NC(=O)c2cccc(C#Cc3cc(-c4cnn(C)c4)cnc3N)c2OC)cc(OC)c1	–	0%	22.8%	6.7%	–	–
CNC(=O)c1cnc(N)c(C#Cc2cc(C(=O)Nc3cc(OC)cc(OC)c3)ccc2C)c1	–	14.7%	66.2%	26.8%	–	–
COc1cc(NC(=O)c2ccc(F)c(C#Cc3cc(-c4cnn(C)c4)cnc3N)c2)cc(OC)c1	–	2.34%	30.9%	0.83%	–	–
COc1cc(NC(=O)c2ccc(C)c(C#Cc3cc(-c4cnn(C)c4)cnc3N)c2)cc(OC)c1OC	8.13	82.6%	131%	103%	2.2	8.10
Cc1ccc(C(=O)Nc2cccc(C(F)(F)F)c2)cc1C#Cc1cc(-c2cnn(C)c2)cnc1N	8.56	88.9%	113%	109%	2.5	–
COc1cc(NC(=O)c2ccc(Br)c(C#Cc3cc(-c4cnn(C)c4)cnc3N)c2)cc(OC)c1	–	22.6%	79.2%	36.6%	–	–
COc1cc(NC(=O)c2cccc(C#Cc3cc(-c4cnn(C)c4)cnc3N)c2C)cc(OC)c1	–	3.11%	18.3%	8.75%	–	–
Cc1ccc(C(=O)Nc2ccc(Cl)c(Cl)c2)cc1C#Cc1cc(-c2cnn(C)c2)cnc1N	–	39.8%	65%	40.6%	–	–
COc1cc(NC(=O)c2ccc(Cl)c(C#Cc3cc(-c4cnn(C)c4)cnc3N)c2)cc(OC)c1	–	0%	52.5%	9.97%	–	–
Cc1ccc(C(=O)Nc2ccc(Cl)c(C(F)(F)F)c2)cc1C#Cc1cc(-c2cnn(C)c2)cnc1N	7.89	76.1%	170%	145%	13.9	7.52
FC(F)(F)c1ccc(CNc2ccc(Cc3c[nH]c4ncc(Cl)cc34)cn2)cn1 [PEXIDARTINIB]	< 6.00	–	–	–	–	–
COc1cc(NC(=O)c2cccc(C#Cc3cc(-c4cnn(C)c4)cnc3N)c2F)cc(OC)c1	–	34%	33%	24.8%	–	–
COc1ccc(NC(=O)c2ccc(C)c(C#Cc3cc(-c4cnn(C)c4)cnc3N)c2)cc1	7.98	41.5%	101%	66.9%	–	–

SMILES	pIC50 [1]	inhibition at 0.04 µM [2]	inhibition at 1 µM [3]	inhibition at 0.2 µM [4]	selectivity ratio [5]	pIC50 [6]
Cc1ccc(C(=O)Nc2cccc(OC(F)(F)F)c2)cc1C#Cc1cc(-c2cnn(C)c2)cnc1N	8.15	81.1%	150%	138%	12.9	7.62
Cc1ccc(C(=O)Nc2ccccc2)cc1C#Cc1cc(-c2cnn(C)c2)cnc1N	–	28.6%	65.3%	40.9%	–	–
Cc1ccc(C(=O)Nc2ccccc2Cl)cc1C#Cc1cc(-c2cnn(C)c2)cnc1N	–	-4.58%	25%	-5.24%	–	–
Cc1ccc(C(=O)Nc2ccc(C(F)(F)F)c(C(F)(F)F)c2)cc1C#Cc1cc(-c2cnn(C)c2)cnc1N	7.23	40.5%	144%	–	–	–
COc1cc(NC(=O)c2ccc(C)c(C#Cc3cc(-c4cnn(C)c4)cnc3N)c2)cc(OC)c1	7.59	20.1%	108%	61.7%	15.4	–
COc1ccc(NC(=O)c2ccc(C)c(C#Cc3cc(-c4cnn(C)c4)cnc3N)c2)cc1OC	–	23.7%	82.2%	49.7%	–	–
COc1cc(NC(=O)c2ccc(C)c(C#Cc3cc(C(N)=O)cnc3N)c2)cc(OC)c1	–	10.8%	74.2%	13.7%	–	–
Cc1ccc(C(=O)Nc2ccccn2)cc1C#Cc1cc(-c2cnn(C)c2)cnc1N	–	2.86%	60.6%	21.1%	–	–
Cc1ccc(C(=O)Nc2cccc(Cl)c2)cc1C#Cc1cc(-c2cnn(C)c2)cnc1N	8.18	49%	118%	82.9%	3.8	–
COc1cc(NC(=O)c2ccc(C)c(C#Cc3cc(Cl)cnc3N)c2)cc(OC)c1	–	-1.58%	50.9%	37%	–	–
Cc1ccc(C(=O)Nc2ccc(C(F)(F)F)cc2)cc1C#Cc1cc(-c2cnn(C)c2)cnc1N	8.22	51.1%	78.4%	60.8%	2.3	–
COc1ccccc1NC(=O)c1ccc(C)c(C#Cc2cc(-c3cnn(C)c3)cnc2N)c1	–	10.2%	73.5%	–	–	–
CCNc1ncc(-c2cnn(C)c2)cc1C#Cc1cc(C(=O)Nc2cc(OC)cc(OC)c2)ccc1C	–	16.8%	95.4%	45.3%	–	–
Cc1ccc(C(=O)Nc2ccc3c(c2)OCCO3)cc1C#Cc1cc(-c2cnn(C)c2)cnc1N	7.17	66.8%	132%	102%	–	–
COc1cccc(NC(=O)c2ccc(C)c(C#Cc3cc(-c4cnn(C)c4)cnc3N)c2)c1	7.66	–	125%	80.5%	–	–
COc1cc(NC(=O)c2ccc(C(C)C)c(C#Cc3cc(-c4cnn(C)c4)cnc3N)c2)cc(OC)c1	–	-8.56%	-1.01%	-7.82%	–	–
COc1cc(NC(=O)c2ccc(C(F)(F)F)c(C#Cc3cc(-c4cnn(C)c4)cnc3N)c2)cc(OC)c1	–	-3.24%	15.7%	-2.84%	–	–
COc1cc(NC(=O)c2ccc(OC)c(C#Cc3cc(-c4cnn(C)c4)cnc3N)c2)cc(OC)c1	–	11%	34%	18%	–	–
